Each block holds one compound with its values, some of them ahead of it.
How the values were obtained:
[1] = test system: CYP17; conditions: Figure 1, known CYP17 inhibitors; cited from earlier work
[2] = test system: A549/ATCC; experiment: NCI-60 SRB screen; type: cell-based, human; conditions: single dose 10^−5 M
[3] = test system: NCI-H226; experiment: NCI-60 SRB screen; type: cell-based, human; conditions: NCI-H226; single dose 10^−5 M
[4] = test system: NCI-H322M; experiment: NCI-60 SRB screen; type: cell-based, human; conditions: single dose 10^−5 M
[5] = test system: OVCAR-8; experiment: NCI-60 SRB screen; type: cell-based, human; conditions: OVCAR-8; single dose 10^−5 M
[6] = test system: COLO 205; experiment: NCI-60 SRB screen; type: cell-based, human; conditions: COLO 205; single dose 10^−5 M
[7] = test system: CCRF-CEM; experiment: NCI-60 SRB screen; type: cell-based; conditions: single dose 10^−5 M
[8] = test system: SK-MEL-28; experiment: NCI-60 SRB screen; type: cell-based; conditions: SK-MEL-28; single dose 10^−5 M
[9] = test system: HT-29; experiment: NCI-60 SRB screen; type: cell-based; conditions: HT-29; single dose 10^−5 M
[10] = test system: ACHN; experiment: NCI-60 SRB screen; type: cell-based; conditions: single dose 10^−5 M
[11] = test system: HCC-2998; experiment: NCI-60 SRB screen; type: cell-based, human; conditions: HCC-2998; single dose 10^−5 M
[12] = test system: IGROV1; experiment: NCI-60 SRB screen; type: cell-based, human; conditions: IGROV1; single dose 10^−5 M
[13] = test system: UO-31; experiment: NCI-60 SRB screen; type: cell-based, human; conditions: UO-31; single dose 10^−5 M
[14] = test system: CAKI-1; experiment: NCI-60 SRB screen; type: cell-based, human; conditions: CAKI-1; single dose 10^−5 M
[15] = test system: SNB-19; experiment: NCI-60 SRB screen; type: cell-based; conditions: SNB-19; single dose 10^−5 M
[16] = test system: HOP-62; experiment: NCI-60 SRB screen; type: cell-based, human; conditions: HOP-62; single dose 10^−5 M
[17] = test system: UACC-257; experiment: NCI-60 SRB screen; type: cell-based, human; conditions: UACC-275 (so in the source); single dose 10^−5 M
[18] = test system: SK-MEL-5; experiment: NCI-60 SRB screen; type: cell-based, human; conditions: SK-MEL-5; single dose 10^−5 M
[19] = test system: SF-295; experiment: NCI-60 SRB screen; type: cell-based, human; conditions: SF-295; single dose 10^−5 M
[20] = test system: SK-MEL-2; experiment: NCI-60 SRB screen; type: cell-based, human; conditions: SK-MEL-2; single dose 10^−5 M
[21] = test system: OVCAR-5; experiment: NCI-60 SRB screen; type: cell-based, human; conditions: OVCAR-5; single dose 10^−5 M
[22] = test system: OVCAR-3; experiment: NCI-60 SRB screen; type: cell-based, human; conditions: OVCAR-3; single dose 10^−5 M
[23] = test system: UACC-62; experiment: NCI-60 SRB screen; type: cell-based, human; conditions: UACC-62; single dose 10^−5 M
[24] = test system: MDA-MB-435; experiment: NCI-60 SRB screen; type: cell-based; conditions: MDA-MB435; single dose 10^−5 M
[25] = test system: HCT-15; experiment: NCI-60 SRB screen; type: cell-based, human; conditions: HCT-15; single dose 10^−5 M
[26] = test system: MOLT-4; experiment: NCI-60 SRB screen; type: cell-based; conditions: MOLT-4; single dose 10^−5 M
[27] = test system: SF-268; experiment: NCI-60 SRB screen; type: cell-based, human; conditions: SF-268; single dose 10^−5 M
[28] = test system: RXF 393; experiment: NCI-60 SRB screen; type: cell-based, human; conditions: RXF 393; single dose 10^−5 M
[29] = test system: KM12; experiment: NCI-60 SRB screen; type: cell-based, human; conditions: KM12; single dose 10^−5 M
[30] = test system: SK-OV-3; experiment: NCI-60 SRB screen; type: cell-based, human; conditions: SK-OV-3; single dose 10^−5 M
[31] = test system: SW-620; experiment: NCI-60 SRB screen; type: cell-based; conditions: SW-620; single dose 10^−5 M
[32] = test system: U251; experiment: NCI-60 SRB screen; type: cell-based, human; conditions: U251; single dose 10^−5 M
[33] = test system: MALME-3M; experiment: NCI-60 SRB screen; type: cell-based, human; conditions: single dose 10^−5 M
[34] = test system: HOP-92; experiment: NCI-60 SRB screen; type: cell-based, human; conditions: HOP-92; single dose 10^−5 M
[35] = test system: NCI-H522; experiment: NCI-60 SRB screen; type: cell-based, human; conditions: NCI-H522; single dose 10^−5 M
[36] = test system: SN12C; experiment: NCI-60 SRB screen; type: cell-based, human; conditions: SN 12 C; single dose 10^−5 M
[37] = test system: NCI/ADR-RES; experiment: NCI-60 SRB screen; type: cell-based, human; conditions: single dose 10^−5 M
[38] = test system: 786-0; experiment: NCI-60 SRB screen; type: cell-based; conditions: 786-0; single dose 10^−5 M
[39] = test system: SR; experiment: NCI-60 SRB screen; type: cell-based; conditions: single dose 10^−5 M
[40] = test system: SF-539; experiment: NCI-60 SRB screen; type: cell-based, human; conditions: SF-539; single dose 10^−5 M
[41] = test system: LOX IMVI; experiment: NCI-60 SRB screen; type: cell-based, human; conditions: single dose 10^−5 M
[42] = test system: RPMI-8226; experiment: NCI-60 SRB screen; type: cell-based; conditions: RPMI-8226; single dose 10^−5 M
[43] = test system: SNB-75; experiment: NCI-60 SRB screen; type: cell-based, human; conditions: SNB-75; single dose 10^−5 M
[44] = test system: A498; experiment: NCI-60 SRB screen; type: cell-based, human; conditions: A498; single dose 10^−5 M
[45] = test system: HCT-116; experiment: NCI-60 SRB screen; type: cell-based, human; conditions: HCT-116; single dose 10^−5 M
[46] = test system: TK-10; experiment: NCI-60 SRB screen; type: cell-based, human; conditions: TK-10; single dose 10^−5 M
[47] = test system: OVCAR-4; experiment: NCI-60 SRB screen; type: cell-based, human; conditions: OVCAR-4; single dose 10^−5 M
[48] = test system: HL-60(TB); experiment: NCI-60 SRB screen; type: cell-based, human; conditions: HL-60 (TB); single dose 10^−5 M
[49] = test system: K-562; experiment: NCI-60 SRB screen; type: cell-based, human; conditions: K-562; single dose 10^−5 M
[50] = test system: panel of 60 cancer cell lines; experiment: NCI-60 SRB screen, mean or range over the panel; type: cell-based, human; conditions: mean over the cell lines; single dose 10^−5 M
[51] = test system: NCI-H460; experiment: NCI-60 SRB screen; type: cell-based, human; conditions: NCI-H460; single dose 10^−5 M
[52] = test system: M14; experiment: NCI-60 SRB screen; type: cell-based, human; conditions: M14; single dose 10^−5 M
[53] = test system: EKVX; experiment: NCI-60 SRB screen; type: cell-based, human; conditions: single dose 10^−5 M
[54] = test system: NCI-H23; experiment: NCI-60 SRB screen; type: cell-based, human; conditions: NCI-H23; single dose 10^−5 M

Structure (SMILES): Oc1ccc2sc3c(c2c1)CCN(Cc1cccnc1)C3 [VIc]
IC50 [1]: 20.9 nM

Structure (SMILES): C[C@]12CC[C@H](O)CC1=CC[C@@H]1[C@@H]2CC[C@]2(C)C(n3cnc4ccccc43)=CC[C@@H]12 [Galeterone]
IC50 [1]: 300 nM

melting point: 200 to 202 °C
Structure (SMILES): O=C1C(=Cc2cccc([N+](=O)[O-])c2)Sc2c(F)cccc21 [Compound 2d, 7-Fluoro-2-(3-nitrobenzylidene)[1]benzothiophen-3(2H)-one]

Structure (SMILES): c1ccc2c(c1)[nH]c1cc(Cc3cnc[nH]3)ccc12 [YM-116]
IC50 [1]: 228 nM

Structure (SMILES): CNC(=O)c1ccc(N2C(=S)N(c3cnc(C#N)c(C(F)(F)F)c3)C(=O)C23CCC3)cc1F [Apalutamide, apalutamide]
IC50 [1]: 15 nM

Structure (SMILES): N#Cc1ccc2sc3c(c2c1)CCN(Cc1cccnc1)C3 [VId]
IC50 [1]: 257 nM

Structure (SMILES): Cc1ccncc1N1CCN(c2ccnc(Cl)c2)C1=O [CFG920]
IC50 [1]: 23 nM

Structure (SMILES): COc1ccc(C2NC(=O)Cc3c2sc2c(F)cccc32)c(OC)c1 (stereo not drawn) [Compound 3a]
Growth inhibition (%) [2]: −10.00% | Growth inhibition (%) [3]: 13.11% | Growth inhibition (%) [4]: −3.18% | Growth inhibition (%) [5]: −3.27% | Growth inhibition (%) [6]: −16.49% | Growth inhibition (%) [7]: −5.88% | Growth inhibition (%) [8]: −11.36% | Growth inhibition (%) [9]: −7.86% | Growth inhibition (%) [10]: 1.30% | Growth inhibition (%) [11]: −15.27% | Growth inhibition (%) [12]: 8.40% | Growth inhibition (%) [13]: 32.68% | Growth inhibition (%) [14]: 23.33% | Growth inhibition (%) [15]: 1.20% | Growth inhibition (%) [16]: 11.63% | Growth inhibition (%) [17]: −6.31% | Growth inhibition (%) [18]: 2.83% | Growth inhibition (%) [19]: −2.52% | Growth inhibition (%) [20]: −25.13% | Growth inhibition (%) [21]: −3.20% | Growth inhibition (%) [22]: −0.33% | Growth inhibition (%) [23]: 10.62% | Growth inhibition (%) [24]: 9.40% | Growth inhibition (%) [25]: −3.42% | Growth inhibition (%) [26]: 2.64% | Growth inhibition (%) [27]: 8.45% | Growth inhibition (%) [28]: −2.63% | Growth inhibition (%) [29]: 7.40% | Growth inhibition (%) [30]: −0.85% | Growth inhibition (%) [31]: 3.98% | Growth inhibition (%) [32]: 2.07% | Growth inhibition (%) [33]: 15.80% | Growth inhibition (%) [34]: 2.88% | Growth inhibition (%) [35]: 4.48% | Growth inhibition (%) [36]: −0.49% | Growth inhibition (%) [37]: −2.37% | Growth inhibition (%) [38]: −7.41% | Growth inhibition (%) [39]: 28.66% | Growth inhibition (%) [40]: 11.49% | Growth inhibition (%) [41]: 5.88% | Growth inhibition (%) [42]: −2.54% | Growth inhibition (%) [43]: 17.27% | Growth inhibition (%) [44]: 9.33% | Growth inhibition (%) [45]: −0.50% | Growth inhibition (%) [46]: −29.42% | Growth inhibition (%) [47]: 3.35% | Growth inhibition (%) [48]: −7.79% | Growth inhibition (%) [49]: 12.84% | Mean growth inhibition (%) [50]: 6.67% | Growth inhibition (%) [51]: 2.47% | Growth inhibition (%) [52]: 4.96% | Growth inhibition (%) [53]: 7.10% | Growth inhibition (%) [54]: 0.15%

Reference: PMC8330742, “New benzothieno[2,3-c]pyridines as non-steroidal CYP17 inhibitors: design, synthesis, anticancer screening, apoptosis induction, and in silico ADME profile studies” (Journal of Enzyme Inhibition and Medicinal Chemistry, 2021)
